This experiment has as its target T1, hMATE1 (multidrug and toxin extrusion protein 1) (Homo sapiens, UniProt Q96FL8).
T1 construct: gene SLC47A1; hMATE1 stably transfected in HEK293 cells
T1 sequence (Q96FL8 1-570): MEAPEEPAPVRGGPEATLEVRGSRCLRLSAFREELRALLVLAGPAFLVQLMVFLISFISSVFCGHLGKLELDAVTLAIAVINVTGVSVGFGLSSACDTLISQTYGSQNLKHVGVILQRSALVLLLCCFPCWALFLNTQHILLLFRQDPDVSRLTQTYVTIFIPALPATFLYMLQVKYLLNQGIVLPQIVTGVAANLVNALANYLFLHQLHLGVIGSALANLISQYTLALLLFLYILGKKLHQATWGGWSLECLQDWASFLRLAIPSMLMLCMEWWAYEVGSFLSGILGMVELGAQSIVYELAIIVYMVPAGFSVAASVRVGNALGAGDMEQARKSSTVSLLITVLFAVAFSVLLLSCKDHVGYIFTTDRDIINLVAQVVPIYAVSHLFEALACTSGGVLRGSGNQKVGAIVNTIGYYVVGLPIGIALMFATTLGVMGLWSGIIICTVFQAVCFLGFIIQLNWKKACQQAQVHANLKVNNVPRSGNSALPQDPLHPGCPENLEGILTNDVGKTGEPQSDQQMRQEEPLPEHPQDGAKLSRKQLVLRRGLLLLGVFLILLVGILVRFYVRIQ
Description: cis-inhibition of ASP+ uptake in hMATE1-HEK293 cells after acidification; supported by LC/MS of temperature-dependent tofacitinib export. The experiment is classed as cell-based.

This note sets out measurements from publication PMC7556031, “Tofacitinib and Baricitinib Are Taken up by Different Uptake Mechanisms Determining the Efficacy of Both Drugs in RA” (International Journal of Molecular Sciences, 2020).

As a reminder, the IC50 is the concentration that gives 50% inhibition. `C[C@@H]1CCN(C(=O)CC#N)C[C@@H]1N(C)c1ncnc2[nH]ccc12` [Tofacitinib] registered an IC50 of 19.8 µM.
